Assays:
Experiment in all cases: Cell panel screen (CellTiter-Glo)
Assay type in all cases: cell-based, human
BT-549 = BT-549 (Breast), 20 micromolar, 72 hrs
Summary of the method: (§1)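 Compound, diluted from DMSO into culture medium, was added at a final 20 μM; control wells got equal DMSO. After 72 h, luminescent ATP signal was recorded and converted to percent inhibition.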

SW13 = SW13 (Adrenal gland), 20 micromolar, 72 hrs
Summary of the method: as §1

HPAF-II = HPAF-II (Pancreas), 20 micromolar, 72 hrs
Summary of the method: as §1

ChaGo-K-1 = ChaGo-K-1 (Lung), 20 micromolar, 72 hrs
Summary of the method: as §1

HEC-1-A = HEC-1-A (Uterus), 20 micromolar, 72 hrs
Summary of the method: as §1

A498 = A498 (listed under Lung), 20 micromolar, 72 hrs
Summary of the method: as §1

RL95 = RL95 (Uterus), 20 micromolar, 72 hrs
Summary of the method: as §1

HCC1395 = HCC1395 (Breast), 20 micromolar, 72 hrs
Summary of the method: as §1

HGC-27 = HGC-27 (Stomach), 20 micromolar, 72 hrs
Summary of the method: as §1

A704 = A704 (Kidney), 20 micromolar, 72 hrs
Summary of the method: as §1

NCI-H1770 = NCI-H1770 (Lung), 20 micromolar, 72 hrs
Summary of the method: as §1

Colo 205 = conditions: Colo 205, 20 micromolar, 72 hrs
Summary of the method: as §1

Bel-7402 = Bel-7402 (Liver), 20 micromolar, 72 hrs
Summary of the method: as §1

NCI-H2405 = NCI-H2405 (Lung), 20 micromolar, 72 hrs
Summary of the method: as §1

HCC1599 = HCC1599 (Breast), 20 micromolar, 72 hrs
Summary of the method: as §1

NCI-H28 = NCI-H28 (Lung), 20 micromolar, 72 hrs
Summary of the method: as §1

CCF-STTG1 = CCF-STTG1 (Brain), 20 micromolar, 72 hrs
Summary of the method: as §1

M059J = M059J (Brain), 20 micromolar, 72 hrs
Summary of the method: as §1

J82 = J82 (Urinary bladder), 20 micromolar, 72 hrs
Summary of the method: as §1

CW-2 = CW-2 (Colon), 20 micromolar, 72 hrs
Summary of the method: as §1

NCI-H524 = NCI-H524 (Lung), 20 micromolar, 72 hrs
Summary of the method: as §1

T47D = T47D (Breast), 20 micromolar, 72 hrs
Summary of the method: as §1

MSTO-211-H = MSTO-211-H (Lung), 20 micromolar, 72 hrs
Summary of the method: as §1

ZR-75-30 = ZR-75-30 (Breast), 20 micromolar, 72 hrs
Summary of the method: as §1

NCI-H1694 = NCI-H1694 (Lung), 20 micromolar, 72 hrs
Summary of the method: as §1

NCI-H2347 = NCI-H2347 (Lung), 20 micromolar, 72 hrs
Summary of the method: as §1

HT-1197 = HT-1197 (Urinary bladder), 20 micromolar, 72 hrs
Summary of the method: as §1

C8166 = C8166 (Leukemia), 20 micromolar, 72 hrs
Summary of the method: as §1

BT-474 = BT-474 (Breast), 20 micromolar, 72 hrs
Summary of the method: as §1

C3A = C3A (Liver), 20 micromolar, 72 hrs
Summary of the method: as §1

HCC1937 = HCC1937 (Breast), 20 micromolar, 72 hrs
Summary of the method: as §1

T98G = T98G (Brain), 20 micromolar, 72 hrs
Summary of the method: as §1

NCI-H1623 = NCI-H1623 (Lung), 20 micromolar, 72 hrs
Summary of the method: as §1

HCC1569 = HCC1569 (Breast), 20 micromolar, 72 hrs
Summary of the method: as §1

TCCSUP = TCCSUP (Urinary bladder), 20 micromolar, 72 hrs
Summary of the method: as §1

Panc 03.27 = Panc 03.27 (Pancreas), 20 micromolar, 72 hrs
Summary of the method: as §1

Row | Compound | Percent Inhibition (BT-549) | Percent Inhibition (SW13) | Percent Inhibition (HPAF-II) | Percent Inhibition (ChaGo-K-1) | Percent Inhibition (HEC-1-A) | Percent Inhibition (A498) | Percent Inhibition (RL95) | Percent Inhibition (HCC1395) | Percent Inhibition (HGC-27) | Percent Inhibition (A704) | Percent Inhibition (NCI-H1770) | Percent Inhibition (Colo 205) | Percent Inhibition (Bel-7402) | Percent Inhibition (NCI-H2405) | Percent Inhibition (HCC1599) | Percent Inhibition (NCI-H28) | Percent Inhibition (CCF-STTG1) | Percent Inhibition (M059J) | Percent Inhibition (J82) | Percent Inhibition (CW-2) | other results
1 | Bannaxanthone G [bn-21] | 70% | 92% | 84% | 95% | 71% | 60% | 88% | 95% | 84% | 64% | 94% | 100% | 93% | 80% | 97% | 73% | 68% | 94% | 88% | 99% | Percent Inhibition (NCI-H524): 100%; Percent Inhibition (T47D): 64%; Percent Inhibition (MSTO-211-H): 90%; Percent Inhibition (ZR-75-30): 99%; Percent Inhibition (NCI-H1694): 100%; Percent Inhibition (NCI-H2347): 75%; Percent Inhibition (HT-1197): 91%; Percent Inhibition (C8166): 90%; Percent Inhibition (BT-474): 88%; Percent Inhibition (C3A): 62%; Percent Inhibition (HCC1937): 92%; Percent Inhibition (T98G): 77%; Percent Inhibition (NCI-H1623): 72%; Percent Inhibition (HCC1569): 76%; Percent Inhibition (TCCSUP): 84%; Percent Inhibition (Panc 03.27): 95%
2 | CC(C)=CCc1c2c(c(O)c3c1OC14C(=CC5CC1C(C)(C)OC4(CC=C(C)C(=O)O)C5=O)C3=O)C=CC(C)(C)O2 (stereo not drawn) [GB27] | 98% | 99% | 98% | 98% | 99% | 88% | 98% | 99% | 98% | 98% | 99% | 99% | 97% | 98% | 99% | 90% | 99% | 99% | 98% | 99% | Percent Inhibition (NCI-H524): 99%; Percent Inhibition (T47D): 99%; Percent Inhibition (MSTO-211-H): 99%; Percent Inhibition (ZR-75-30): 99%; Percent Inhibition (NCI-H1694): 99%; Percent Inhibition (NCI-H2347): 93%; Percent Inhibition (HT-1197): 95%; Percent Inhibition (C8166): 99%; Percent Inhibition (BT-474): 98%; Percent Inhibition (C3A): 98%; Percent Inhibition (HCC1937): 99%; Percent Inhibition (T98G): 99%; Percent Inhibition (NCI-H1623): 98%; Percent Inhibition (HCC1569): 99%; Percent Inhibition (TCCSUP): 99%; Percent Inhibition (Panc 03.27): 97%
3 | CC(C)=CCc1c2c(c3oc4c(O)c(O)ccc4c(=O)c3c1O)C=CC(C)(C)O2 [Compound C-6] | -6% | 1% | -10% | 7% | 1% | 10% | 9% | 14% | 18% | -8% | 5% | 3% | 5% | -5% | 52% | 12% | 16% | -21% | 13% | 5% | Percent Inhibition (NCI-H524): -61%; Percent Inhibition (T47D): 6%; Percent Inhibition (MSTO-211-H): 1%; Percent Inhibition (ZR-75-30): 64%; Percent Inhibition (NCI-H1694): 19%; Percent Inhibition (NCI-H2347): 7%; Percent Inhibition (HT-1197): 20%; Percent Inhibition (C8166): 12%; Percent Inhibition (BT-474): -18%; Percent Inhibition (C3A): 17%; Percent Inhibition (HCC1937): 21%; Percent Inhibition (T98G): 11%; Percent Inhibition (NCI-H1623): -13%; Percent Inhibition (HCC1569): 7%; Percent Inhibition (TCCSUP): 11%; Percent Inhibition (Panc 03.27): 21%

Source: PMC4450297, “Screening Active Compounds from Garcinia Species Native to China Reveals Novel Compounds Targeting the STAT/JAK Signaling Pathway” (BioMed Research International, 2015)
